This note sets out measurements from ChEMBL document CHEMBL4251585, “Accelerated skin wound healing by selective 11β-Hydroxylase (CYP11B1) inhibitors” (Eur J Med Chem, 2018).

What is called inhibition is the percentage by which the read-out fell short of the control. In general, half-life refers to the time needed for the level to fall by half in the phase considered. For orientation: IC50 means the midpoint of a concentration-inhibition curve.

Series [1] addresses T1, 11-beta-hydroxysteroid dehydrogenase 1 (Homo sapiens, UniProt P28845). Briefly: Inhibition of human 11beta-HSD1 expressed in HEK293 cell lysates at 200 uM using [1,2-3H]-cortisone as substrate preincubated for 10 mins followed by substrate addition in presence of NADPH by scintillation counting relative to control.
Target sequence in this assay (P28845 whole entry, looked up): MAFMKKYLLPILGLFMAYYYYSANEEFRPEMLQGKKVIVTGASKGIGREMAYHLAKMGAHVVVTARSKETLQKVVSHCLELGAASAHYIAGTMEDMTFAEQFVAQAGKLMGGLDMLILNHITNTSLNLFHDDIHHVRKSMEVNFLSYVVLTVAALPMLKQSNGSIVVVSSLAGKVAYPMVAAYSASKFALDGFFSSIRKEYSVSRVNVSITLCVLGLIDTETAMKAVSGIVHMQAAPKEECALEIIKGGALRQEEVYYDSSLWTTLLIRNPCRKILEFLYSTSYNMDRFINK
Series [2] deals with T1, 11-beta-hydroxysteroid dehydrogenase 1. The experiment in a line: Inhibition of human 11beta-HSD1 expressed in HEK293 cell lysates at 50 uM using [1,2-3H]-cortisone as substrate preincubated for 10 mins followed by substrate addition in presence of NADPH by scintillation counting relative to control.
Target sequence in this assay (P28845 whole entry, looked up): as above
Series [3] is described as follows: Half life in human liver S9 fraction at 1 uM up to 60 mins in presence of NADPH/UDPGA by LC-MS/MS analysis. The class given is ADME, subcellular.
Series [4] has as its target T2, 11-beta-hydroxysteroid dehydrogenase type 2 (Homo sapiens, UniProt P80365).
T2 sequence (P80365 whole entry): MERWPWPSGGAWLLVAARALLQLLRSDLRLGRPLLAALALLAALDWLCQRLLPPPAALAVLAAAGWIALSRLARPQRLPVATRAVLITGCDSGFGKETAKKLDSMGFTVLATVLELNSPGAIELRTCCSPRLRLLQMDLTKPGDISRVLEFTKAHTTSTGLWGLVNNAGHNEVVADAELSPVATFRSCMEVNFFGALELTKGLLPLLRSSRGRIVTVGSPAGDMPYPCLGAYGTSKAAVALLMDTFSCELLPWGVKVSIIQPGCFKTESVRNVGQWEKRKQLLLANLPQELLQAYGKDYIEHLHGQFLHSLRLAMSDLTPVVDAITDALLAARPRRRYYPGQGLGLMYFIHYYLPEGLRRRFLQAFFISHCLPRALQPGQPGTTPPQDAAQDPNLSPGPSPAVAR
Briefly: Inhibition of human 11beta-HSD2 expressed in HEK293 cell lysates at 200 uM using [1,2,6,7-3H]-cortisol as substrate preincubated for 10 mins followed by substrate addition in presence of NAD by scintillation counting relative to control. Also noted: species or system Lysate.

The next series has as its target T3, CYP19A1 (aromatase) (Homo sapiens, UniProt P11511).
T3 sequence (P11511 whole entry): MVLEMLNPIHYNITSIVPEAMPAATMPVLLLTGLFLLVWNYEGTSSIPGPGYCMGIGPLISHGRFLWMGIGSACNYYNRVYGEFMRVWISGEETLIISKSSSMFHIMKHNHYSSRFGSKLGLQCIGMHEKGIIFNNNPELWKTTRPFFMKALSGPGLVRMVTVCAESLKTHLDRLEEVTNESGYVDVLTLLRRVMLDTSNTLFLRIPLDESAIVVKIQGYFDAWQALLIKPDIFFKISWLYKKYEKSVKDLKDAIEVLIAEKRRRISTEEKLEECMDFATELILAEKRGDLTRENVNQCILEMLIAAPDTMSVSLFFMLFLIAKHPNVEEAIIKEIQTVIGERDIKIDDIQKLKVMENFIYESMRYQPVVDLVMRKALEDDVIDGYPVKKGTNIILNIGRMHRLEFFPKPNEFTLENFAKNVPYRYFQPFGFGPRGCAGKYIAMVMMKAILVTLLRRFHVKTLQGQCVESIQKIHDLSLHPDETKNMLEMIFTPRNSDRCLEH
The experiment in a line: Inhibition of human placental microsomal CYP19A1 at 2 uM using [1beta-3H]androstenedione after 21 mins by liquid scintillation spectrometry. The class given is ADME. Conditions: placental microsomes, probe [1beta-3H]androstenedione.

The target in series [5] is T4, Cytochrome P450 11B1, mitochondrial (Homo sapiens, UniProt P15538).
T4 sequence (P15538 whole entry): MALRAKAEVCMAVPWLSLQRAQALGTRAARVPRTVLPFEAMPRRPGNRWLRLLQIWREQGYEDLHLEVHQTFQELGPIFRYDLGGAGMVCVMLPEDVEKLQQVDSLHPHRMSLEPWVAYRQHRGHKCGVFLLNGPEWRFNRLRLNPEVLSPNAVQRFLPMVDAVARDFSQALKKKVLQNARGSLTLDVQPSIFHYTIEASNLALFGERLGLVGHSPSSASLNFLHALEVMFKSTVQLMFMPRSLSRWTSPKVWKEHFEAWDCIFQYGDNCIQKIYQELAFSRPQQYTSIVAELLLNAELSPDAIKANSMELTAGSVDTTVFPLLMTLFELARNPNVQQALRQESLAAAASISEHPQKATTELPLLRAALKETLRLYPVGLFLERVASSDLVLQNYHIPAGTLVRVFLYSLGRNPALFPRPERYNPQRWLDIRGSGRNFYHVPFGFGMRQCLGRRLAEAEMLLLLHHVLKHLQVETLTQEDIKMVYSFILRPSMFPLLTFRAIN
Briefly: Inhibition of human CYP11B1 expressed in hamster V79MZ cells using [1,2-3H]-11-deoxycorticosterone as substrate after 6 hrs by HPTLC analysis. The class given is cell-based.

In series [6] the test system is Zone of skin. Briefly: Induction of wound healing in human skin explant assessed as re-epithelialization at 5 uM administered topically for 3 days measured on day 1 post administration by hematoxylin-eosin-saffron staining based microscopic analysis (reference value: 13 +/- 7%). The class given is functional.
Series [7] deals with Zone of skin. Briefly: Induction of wound healing in human skin explant assessed as re-epithelialization at 5 uM administered topically for 3 days measured on day 3 post administration by hematoxylin-eosin-saffron staining based microscopic analysis relative to control. The series is classed as functional.
For series [8], the system named is Salmonella typhimurium. Briefly: Mutagenicity in Salmonella typhimurium TA98 up to 100 uM in absence of rat liver S9 fraction by Ames 2 assay. The class given is toxicity, organism-based. The settings on record: salmonella enterica subsp. enterica serovar typhimurium.
Series [9] has as its system Salmonella typhimurium. The experiment in a line: Mutagenicity in Salmonella typhimurium TA7001/7002/7003/7004/7005/7006 up to 100 uM in presence of rat liver S9 fraction by Ames 2 assay. The class given is toxicity, organism-based. Conditions: salmonella enterica subsp. enterica serovar typhimurium.
Series [10] relates to Salmonella typhimurium. Briefly: Mutagenicity in Salmonella typhimurium TA7001/7002/7003/7004/7005/7006 up to 100 uM in absence of rat liver S9 fraction by Ames 2 assay. The class given is toxicity, organism-based. The settings on record: salmonella enterica subsp. enterica serovar typhimurium.
Series [11] is described as follows: Half life in human plasma at 1 uM up to 150 mins by LC-MS/MS analysis. The class given is ADME, cell-free.
A further series deals with T5, CYP17A1 (Homo sapiens, UniProt P05093).
T5 sequence (P05093 whole entry): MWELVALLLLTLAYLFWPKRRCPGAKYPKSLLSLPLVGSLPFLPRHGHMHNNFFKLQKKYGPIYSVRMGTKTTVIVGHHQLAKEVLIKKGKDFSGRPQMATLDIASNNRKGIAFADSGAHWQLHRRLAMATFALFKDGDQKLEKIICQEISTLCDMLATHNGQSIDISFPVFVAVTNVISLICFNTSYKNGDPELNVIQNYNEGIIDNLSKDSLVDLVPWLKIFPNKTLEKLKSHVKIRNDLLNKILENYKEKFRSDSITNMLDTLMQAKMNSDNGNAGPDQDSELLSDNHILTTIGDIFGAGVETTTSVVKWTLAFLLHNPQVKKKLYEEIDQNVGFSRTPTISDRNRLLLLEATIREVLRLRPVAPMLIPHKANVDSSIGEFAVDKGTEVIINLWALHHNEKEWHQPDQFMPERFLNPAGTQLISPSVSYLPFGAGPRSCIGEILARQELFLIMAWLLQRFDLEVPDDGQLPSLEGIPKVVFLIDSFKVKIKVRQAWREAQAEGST
The experiment in a line: Inhibition of human CYP17A1 expressed in Escherichia coli XL1 at 2 uM using [3H]-progesterone as substrate preincubated with substrate for 5 mins measured after 45 mins by HPLC analysis. Conditions: human CYP17A1 expressed in Escherichia coli XL1, probe [3H]-progesterone. The class given is ADME.

Series [12] is described as follows: Cytotoxicity against human epidermal keratinocytes assessed as cell viability at 11 uM after 72 hrs by MTT assay relative to control. Also noted: species or system Keratinocyte. The settings on record: read-out: Activity.
Series [13] deals with Salmonella typhimurium. Briefly: Mutagenicity in Salmonella typhimurium TA98 up to 100 uM in presence of rat liver S9 fraction by Ames 2 assay. The class given is toxicity, organism-based. The settings on record: salmonella enterica subsp. enterica serovar typhimurium.
For series [14], the system named is Zone of skin. The experiment in a line: Induction of wound healing in human skin explant assessed as re-epithelialization at 5 uM administered topically for 3 days measured on day 2 post administration by hematoxylin-eosin-saffron staining based microscopic analysis (reference value: 28 +/- 2%). The class given is functional.
Series [15] has as its target T1, 11-beta-hydroxysteroid dehydrogenase 1. Briefly: Inhibition of human 11beta-HSD1 expressed in HEK293 cell lysate using [1,2-3H]-cortisone as substrate preincubated for 10 mins followed by substrate addition in presence of NADPH by scintillation counting.
Target sequence in this assay (P28845 whole entry): as the sequence (P28845 whole entry, looked up) above
Series [16] has as its target T2, 11-beta-hydroxysteroid dehydrogenase type 2. The experiment in a line: Inhibition of human 11beta-HSD2 expressed in HEK293 cell lysates at 10 uM using [1,2,6,7-3H]-cortisol as substrate preincubated for 10 mins followed by substrate addition in presence of NAD by scintillation counting relative to control. Details: species or system Lysate.

Consider `CC(C)(C(=O)c1cccnc1)c1cccnc1` [METYRAPONE], for which the inhibition turned out to be 70% in [1] and 54% in series [2]. The half-life at 1 µM in series [3] was determined as 49 min. In addition, the “inhibition (INH)” value in series [4] is listed as “Not Active”. The same molecule registered an inhibition at 0.35 h, 2 µM against CYP19A1 (aromatase) of 0%.
`Oc1cncc(Cc2cnc(-c3ccccc3)s2)c1` yielded an IC50 in [5] of 77 nM.
For `Oc1cncc(Cc2ccc(-c3ccccc3F)nc2)c1`, the half-life at 1 µM in [3] was found to be 21 min. The molecule also showed an IC50 in series [5] of 29 nM. On CYP19A1 (aromatase), this molecule gave an inhibition at 0.35 h, 2 µM of 1%.
In series [5], `Oc1cncc(Cc2cc(-c3ccccc3)no2)c1` had an IC50 of 120 nM.
Take `COc1cncc(Cc2ccc(-c3ccccc3F)nc2)c1`: the inhibition in series [1] turned out to be 48%. For the same molecule, the Activity is listed as 10% in the series with Zone of skin [6]; 98% in the series with Zone of skin [7]; “Non-Toxic” in the series with Salmonella typhimurium [8]; “Non-Toxic” in the series with Salmonella typhimurium [9]; “Non-Toxic” with Salmonella typhimurium [10]; “Non-Toxic” with Salmonella typhimurium [13]. The Activity in the series with Zone of skin [14] was found to be 89%. In addition, the values for the half-life at 1 µM in series [3] and in [11] were 19 min and greater than 150 min, respectively. The “inhibition (INH)” value in series [4] was “Not Active”. Further, the IC50 in series [5] was determined as 0.8 nM. The inhibition at 0.35 h, 2 µM against CYP19A1 (aromatase) was determined as 2%. For the same molecule, on CYP17A1, the inhibition at 0.75 h, 2 µM came to 5%. For the same molecule, in [12], the viability at 72 h, 11 µM stood at 87%.
For the molecule `Cn1nc(-c2ccccc2)cc1Cc1cncc(O)c1`, the values for the 50% inhibitory concentration (IC50) in series [15] and in series [5] were 1620 nM and 17 nM, respectively. In addition, in [3], the half-life at 1 µM stood at 33 min. In addition, the inhibition at 0.35 h, 2 µM against CYP19A1 (aromatase) was determined as 0%. Also, the “inhibition (INH)” value in series [16] was “Not Active”. The molecule also showed an inhibition at 0.75 h, 2 µM against CYP17A1 of 10%.
